Source: ChEMBL document CHEMBL4177725, “Design and synthesis of novel pyrimidine analogs as highly selective, non-covalent BTK inhibitors” (Bioorg Med Chem Lett, 2018)
Values after ≈ are worked out from the molar mass of the structure shown. Each block holds one compound with its values, some of them ahead of it. Active and inactive are the calls of the source. The calls are words filed in the database; no cut-off is given here.

Columns and labels:
[1] = molecular target: T1, Tyrosine-protein kinase BTK (Homo sapiens, UniProt Q06187); assay: Inhibition of N-terminal DYKDDDDK tagged and biotinylated BTK activated form (unknown origin) using FITC-labeled Srctide substrate and ATP by microfluidic mobility shift assay
T1 sequence (Q06187 whole entry): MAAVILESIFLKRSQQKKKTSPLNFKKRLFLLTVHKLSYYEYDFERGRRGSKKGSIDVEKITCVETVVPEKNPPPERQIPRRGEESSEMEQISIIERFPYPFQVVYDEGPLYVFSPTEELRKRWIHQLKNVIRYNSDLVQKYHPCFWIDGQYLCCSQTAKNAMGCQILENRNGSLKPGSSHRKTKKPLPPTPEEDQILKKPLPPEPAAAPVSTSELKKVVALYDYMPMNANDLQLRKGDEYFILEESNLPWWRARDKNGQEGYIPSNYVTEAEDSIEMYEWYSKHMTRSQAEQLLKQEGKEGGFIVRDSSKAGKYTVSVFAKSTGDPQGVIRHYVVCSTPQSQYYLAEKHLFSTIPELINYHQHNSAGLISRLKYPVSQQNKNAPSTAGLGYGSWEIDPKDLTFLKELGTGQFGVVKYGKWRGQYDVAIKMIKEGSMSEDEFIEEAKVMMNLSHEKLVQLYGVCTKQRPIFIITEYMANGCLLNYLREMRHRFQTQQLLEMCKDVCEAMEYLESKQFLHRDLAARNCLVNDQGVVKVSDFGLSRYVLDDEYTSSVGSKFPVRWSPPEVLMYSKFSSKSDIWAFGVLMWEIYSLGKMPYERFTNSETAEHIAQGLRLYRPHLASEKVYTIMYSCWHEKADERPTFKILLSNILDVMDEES

[2] = molecular target: T1, Tyrosine-protein kinase BTK; assay: Inhibition of His-tagged lambda phosphatase pre-treated N-terminal DYKDDDDK tagged and biotinylated BTK unactivated form (unknown origin) using FITC-labeled Srctide substrate and ATP by microfluidic mobility shift assay
[3] = molecular target: Tyrosine-protein kinase SYK (Homo sapiens, UniProt P43405); assay: Inhibition of SYK (unknown origin) using FITC-labeled Blk/Lyntide substrate and ATP by microfluidic mobility shift assay
[4] = molecular target: T1, Tyrosine-protein kinase BTK; assay: Inhibition of BTK (unknown origin) using FITC-labeled Srctide substrate and ATP by microfluidic mobility shift assay
[5] = Stability in human microsomes; assay type: ADME, Microsome
[6] = Stability in mouse microsomes; assay type: ADME, Microsome
[7] = AUC (0 to infinity) in ICR mouse at 10 mg/kg, po; assay type: ADME, organism-based; parameters: dose 10 mg/kg, time infinity, route oral; conditions: in vivo
[8] = molecular target: T1, Tyrosine-protein kinase BTK; assay: Inhibition of anti-IgM antibody stimulated BTK Tyr223 autophosphorylation in human Ramos cells at 30 nM pre-incubated for 1 hr followed by anti-IgM stimulation for 10 mins by Western blotting; assay type: cell-based
[9] = Apparent permeability in human Caco2 cells; assay type: ADME, cell-based; conditions: Caco-2
[10] = Kinetic solubility in phosphate buffer at pH 7.4 incubated for 1 hr at room temperature by LC-UV or LC-MS/MS method; assay type: physicochemical; conditions: read-out: Kinetic_solubility
[11] = Half life in ICR mouse at 2 mg/kg, iv; assay type: ADME, organism-based; conditions: in vivo
[12] = Half life in ICR mouse at 10 mg/kg, po; assay type: ADME, organism-based; conditions: in vivo
[13] = Tmax in ICR mouse at 2 mg/kg, iv; assay type: ADME, organism-based; conditions: in vivo
[14] = Tmax in ICR mouse at 10 mg/kg, po; assay type: ADME, organism-based; conditions: in vivo
[15] = Cmax in ICR mouse at 2 mg/kg, iv; assay type: ADME, organism-based; parameters: dose 2 mg/kg, route intravenous; conditions: in vivo
[16] = Cmax in ICR mouse at 10 mg/kg, po; assay type: ADME, organism-based; parameters: dose 10 mg/kg, route oral; conditions: in vivo
[17] = AUC (0 to t) in ICR mouse at 2 mg/kg, iv; assay type: ADME, organism-based; conditions: in vivo
[18] = AUC (0 to t) in ICR mouse at 10 mg/kg, po; assay type: ADME, organism-based; conditions: in vivo
[19] = AUC (0 to infinity) in ICR mouse at 2 mg/kg, iv; assay type: ADME, organism-based; parameters: dose 2 mg/kg, route intravenous, time infinity; conditions: in vivo
[20] = Apparent volume of distribution in ICR mouse at 2 mg/kg, iv; assay type: ADME, organism-based; conditions: in vivo, read-out: Vz
[21] = Clearance in ICR mouse at 2 mg/kg, iv; assay type: ADME, organism-based; conditions: in vivo
[22] = MRT (0 to infinity) in ICR mouse at 2 mg/kg, iv; assay type: ADME, organism-based; conditions: in vivo
[23] = MRT (0 to infinity) in ICR mouse at 10 mg/kg, po; assay type: ADME, organism-based; conditions: in vivo
[24] = Oral bioavailability in ICR mouse at 10 mg/kg; assay type: ADME, organism-based; conditions: in vivo
[25] = molecular target: T2, Cytoplasmic tyrosine-protein kinase BMX (Homo sapiens) (UniProt P51813); assay: Inhibition of N-terminal GST-fused human full length BMX at 0.3 uM
T2 sequence (whole entry): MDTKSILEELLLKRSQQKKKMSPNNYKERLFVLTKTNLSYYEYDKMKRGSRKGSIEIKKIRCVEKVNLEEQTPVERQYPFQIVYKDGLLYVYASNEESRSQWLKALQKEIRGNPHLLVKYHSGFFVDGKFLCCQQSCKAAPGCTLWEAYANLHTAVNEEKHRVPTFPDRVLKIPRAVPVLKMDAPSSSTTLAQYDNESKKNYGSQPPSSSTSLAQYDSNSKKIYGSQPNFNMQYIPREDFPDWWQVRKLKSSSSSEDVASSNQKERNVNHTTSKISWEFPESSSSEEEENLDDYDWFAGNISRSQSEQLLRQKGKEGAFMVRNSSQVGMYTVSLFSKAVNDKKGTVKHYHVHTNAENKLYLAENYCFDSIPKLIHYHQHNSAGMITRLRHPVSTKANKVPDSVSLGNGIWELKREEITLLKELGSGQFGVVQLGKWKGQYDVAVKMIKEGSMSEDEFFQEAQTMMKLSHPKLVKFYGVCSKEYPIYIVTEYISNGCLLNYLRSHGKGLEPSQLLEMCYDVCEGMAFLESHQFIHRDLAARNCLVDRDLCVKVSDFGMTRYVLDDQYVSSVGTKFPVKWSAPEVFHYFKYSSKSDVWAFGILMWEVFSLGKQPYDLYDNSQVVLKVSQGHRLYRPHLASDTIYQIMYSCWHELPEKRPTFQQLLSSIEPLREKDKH

[26] = molecular target: T3, Tyrosine-protein kinase Tec (Homo sapiens) (UniProt P42680); assay: Inhibition of N-terminal GST-fused human TEC catalytic domain (359 to 631 amino acids) at 0.3 uM
T3 sequence (whole entry): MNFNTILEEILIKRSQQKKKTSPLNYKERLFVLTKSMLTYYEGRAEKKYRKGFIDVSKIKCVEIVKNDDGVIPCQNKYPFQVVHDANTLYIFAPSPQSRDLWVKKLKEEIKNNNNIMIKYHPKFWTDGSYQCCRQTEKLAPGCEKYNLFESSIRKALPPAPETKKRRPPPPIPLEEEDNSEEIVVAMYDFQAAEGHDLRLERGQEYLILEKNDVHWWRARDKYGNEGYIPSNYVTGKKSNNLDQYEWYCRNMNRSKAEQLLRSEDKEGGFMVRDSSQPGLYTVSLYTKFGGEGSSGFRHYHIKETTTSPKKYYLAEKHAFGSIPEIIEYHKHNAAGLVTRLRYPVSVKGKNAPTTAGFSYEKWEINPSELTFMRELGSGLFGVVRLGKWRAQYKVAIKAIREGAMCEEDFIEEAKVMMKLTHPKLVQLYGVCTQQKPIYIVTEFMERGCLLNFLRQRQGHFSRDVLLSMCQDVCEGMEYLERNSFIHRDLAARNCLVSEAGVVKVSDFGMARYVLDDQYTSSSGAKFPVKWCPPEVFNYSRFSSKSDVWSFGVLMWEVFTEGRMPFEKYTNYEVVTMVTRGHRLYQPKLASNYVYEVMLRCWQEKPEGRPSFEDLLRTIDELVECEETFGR

Mus musculus = assay: Inhibition of passive cutaneous anaphylaxis reaction in anti-DNP IgE sensitized mouse model of passive cutaneous anaphylaxis at 30 mg/kg, po dosed 46 hrs before DNP-BSA/dye mixture injection and measured after 30 mins; assay type: functional
[27] = molecular target: Voltage-gated inwardly rectifying potassium channel KCNH2 (Homo sapiens, UniProt Q12809); assay: Inhibition of human ERG
Chain of Voltage-gated inwardly rectifying potassium channel KCNH2 (Q12809 whole entry): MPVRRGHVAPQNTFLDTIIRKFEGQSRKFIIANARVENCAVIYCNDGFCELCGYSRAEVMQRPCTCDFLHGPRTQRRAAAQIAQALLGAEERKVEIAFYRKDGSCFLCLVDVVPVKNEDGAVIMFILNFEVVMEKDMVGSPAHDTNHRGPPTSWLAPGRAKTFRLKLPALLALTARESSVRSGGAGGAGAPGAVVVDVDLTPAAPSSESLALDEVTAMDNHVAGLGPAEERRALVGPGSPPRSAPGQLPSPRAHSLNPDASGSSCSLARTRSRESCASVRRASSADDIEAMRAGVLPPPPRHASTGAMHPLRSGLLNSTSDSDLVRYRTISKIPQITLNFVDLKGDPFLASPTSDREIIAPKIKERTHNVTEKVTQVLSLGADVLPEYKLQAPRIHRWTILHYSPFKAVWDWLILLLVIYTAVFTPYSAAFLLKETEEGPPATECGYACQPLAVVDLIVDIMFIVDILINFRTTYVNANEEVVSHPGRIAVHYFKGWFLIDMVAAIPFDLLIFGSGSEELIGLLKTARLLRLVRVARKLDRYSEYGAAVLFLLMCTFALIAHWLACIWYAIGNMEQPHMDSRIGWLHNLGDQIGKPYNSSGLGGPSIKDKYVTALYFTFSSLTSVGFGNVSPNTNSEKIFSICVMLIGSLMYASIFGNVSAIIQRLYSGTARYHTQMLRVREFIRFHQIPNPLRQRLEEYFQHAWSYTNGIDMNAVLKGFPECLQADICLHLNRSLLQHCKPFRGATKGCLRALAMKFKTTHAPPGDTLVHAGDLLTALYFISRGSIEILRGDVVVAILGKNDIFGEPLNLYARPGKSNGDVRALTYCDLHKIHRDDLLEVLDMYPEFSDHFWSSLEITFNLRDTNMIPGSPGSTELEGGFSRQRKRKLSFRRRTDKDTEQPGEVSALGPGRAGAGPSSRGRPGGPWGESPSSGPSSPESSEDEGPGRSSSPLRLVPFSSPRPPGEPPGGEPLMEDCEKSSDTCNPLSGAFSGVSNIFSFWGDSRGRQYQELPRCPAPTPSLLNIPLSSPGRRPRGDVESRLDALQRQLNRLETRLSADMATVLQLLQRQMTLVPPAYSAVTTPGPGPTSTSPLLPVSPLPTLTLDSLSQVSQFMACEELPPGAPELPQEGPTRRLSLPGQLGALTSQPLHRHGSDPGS

IC50 [1]: > 10000 nM | IC50 [2]: 309 nM
Compound: Nc1cc(-c2cccc(-n3ccc4cc(C5CC5)cc(F)c4c3=O)c2CO)nc(Nc2ccc(CN3CCOCC3)cc2)n1

IC50 [3]: > 10000 nM | IC50 [4]: 52 nM | Stability [5]: Unstable | Stability [6]: Unstable
Compound: CC(C)(C)c1ccc(C(=O)Nc2cccc(-c3ccnc(Nc4ccc5cc[nH]c5c4)n3)c2)cc1

IC50 [1]: 3.7 nM | IC50 [2]: 0.4 nM | AUC(0-inf) [7]: 12800 ng·h/mL | inhibition [8]: Active | Papp [9]: 6.3 ×10⁻⁶ cm/s | solubility kinetic at 1 h [10]: 18 µM (≈ 8.96 µg/mL) | half-life [11]: 1.12 h | half-life [12]: 0.96 h | Tmax [13]: 4.98 min | Tmax [14]: 0.5 h | Cmax [15]: 2950 ng/mL | Cmax [16]: 4540 ng/mL | AUC(0-t) [17]: 3460 ng·h/mL | AUC(0-t) [18]: 12700 ng·h/mL | AUC(0-inf) [19]: 3480 ng·h/mL | Vd [20]: 0.93 L/kg | clearance [21]: 9.67 mL/min/kg | MRT inf [22]: 1.13 h | MRT inf [23]: 1.91 h | bioavailability [24]: 73.7%
Compound: Cn1cc(Nc2nc(N)cc(-c3cccc(-n4ccc5cc(C6CC6)cc(F)c5c4=O)c3CO)n2)cn1

IC50 [1]: 62 nM | IC50 [2]: 17 nM
Compound: Cn1ccc(Nc2nc(N)cc(-c3cccc(-n4ccc5cc(C6CC6)cc(F)c5c4=O)c3CO)n2)c1

IC50 [3]: > 10000 nM | Stability [5]: Unstable | Stability [6]: Unstable
Compound: Cc1c(NC(=O)c2ccc(C(C)(C)C)cc2)cccc1-c1ccnc(Nc2ccc(C(=O)N3CCOCC3)cc2)n1

IC50 [3]: > 10000 nM | IC50 [4]: 6.1 nM | Stability [5]: Unstable | Stability [6]: Unstable
Compound: COc1cc(Nc2nccc(-c3cccc(NC(=O)c4ccc(C(C)(C)C)cc4)c3C)n2)cc(OC)c1OC

IC50 [1]: 11 nM | IC50 [2]: 0.6 nM | Papp [9]: 5.7 ×10⁻⁶ cm/s
Compound: CC(C)(C)n1cc(Nc2nc(N)cc(-c3cccc(-n4ccc5cc(C6CC6)cc(F)c5c4=O)c3CO)n2)cn1

IC50 [1]: 2.6 nM | IC50 [2]: 0.2 nM | Papp [9]: 3.7 ×10⁻⁶ cm/s | solubility kinetic at 1 h [10]: 4 µM (≈ 2.1 µg/mL)
Compound: CC(C)n1cc(Nc2nc(N)cc(-c3cccc(-n4ccc5cc(C6CC6)cc(F)c5c4=O)c3CO)n2)cn1

IC50 [1]: 39 nM | IC50 [2]: 2.5 nM
Compound: COc1ccc(Nc2nc(N)cc(-c3cccc(-n4ccc5cc(C6CC6)cc(F)c5c4=O)c3CO)n2)cc1

IC50 [3]: > 10000 nM | IC50 [4]: 440 to 450 nM | Stability [5]: Unstable | Stability [6]: Unstable
Compound: Cc1c(NC(=O)c2ccc(C(C)(C)C)cc2)cccc1-c1ccnc(Nc2ccc3cn[nH]c3c2)n1

IC50 [1]: 12.9 nM | IC50 [2]: 0.6 nM
Compound: Nc1cc(-c2cccc(-n3ccc4cc(C5CC5)cc(F)c4c3=O)c2CO)nc(Nc2ccc(N3CCOCC3)cc2)n1

IC50 [3]: 360 nM | IC50 [4]: 7300 nM
Compound: CC(C)(C)c1ccc(C(=O)Nc2cccc(-c3ccnc(Nc4ccc5cn[nH]c5c4)n3)c2)cc1

IC50 [3]: > 10000 nM | IC50 [4]: 40 nM | Stability [5]: Unstable | Stability [6]: Unstable
Compound: Cc1c(NC(=O)c2ccc(C(C)(C)C)cc2)cccc1-c1ccnc(Nc2ccc3[nH]ncc3c2)n1

IC50 [1]: 12 nM | IC50 [2]: 0.6 nM | Papp [9]: 0.7 ×10⁻⁶ cm/s
Compound: Nc1cc(-c2cccc(-n3ccc4cc(C5CC5)cc(F)c4c3=O)c2CO)nc(Nc2cnn(C3(CO)CC3)c2)n1

IC50 [1]: 10 nM | IC50 [2]: 0.4 nM | Papp [9]: 5.4 ×10⁻⁶ cm/s
Compound: CCn1cc(Nc2nc(N)cc(-c3cccc(-n4ccc5cc(C6CC6)cc(F)c5c4=O)c3CO)n2)cn1

IC50 [1]: 8.1 nM
Compound: Nc1cc(-c2cccc(-n3ccc4cc(C5CC5)cc(F)c4c3=O)c2CO)nc(Nc2cn[nH]c2)n1

IC50 [1]: 3.3 nM | IC50 [2]: 0.2 nM | Papp [9]: 3.1 ×10⁻⁶ cm/s | solubility kinetic at 1 h [10]: 2.1 µM (≈ 1.15 µg/mL)
Compound: Nc1cc(-c2cccc(-n3ccc4cc(C5CC5)cc(F)c4c3=O)c2CO)nc(Nc2cnn(CC(F)F)c2)n1

IC50 [1]: 245 nM | IC50 [2]: 13.9 nM
Compound: Cn1ccc(Nc2nc(N)cc(-c3cccc(-n4ccc5cc(C6CC6)cc(F)c5c4=O)c3CO)n2)n1

IC50 [1]: 2.8 nM | AUC(0-inf) [7]: 19100 ng·h/mL | inhibition [8]: Active | Papp [9]: 6.9 ×10⁻⁶ cm/s | solubility kinetic at 1 h [10]: 9.8 µM (≈ 5.13 µg/mL) | inhibition [25]: 70% | inhibition [26]: 92% | half-life [11]: 1.09 h | half-life [12]: 1.31 h | Tmax [13]: 4.98 min | Tmax [14]: 1 h | Cmax [15]: 2260 ng/mL | Cmax [16]: 5940 ng/mL | AUC(0-t) [17]: 3150 ng·h/mL | AUC(0-t) [18]: 18700 ng·h/mL | AUC(0-inf) [19]: 3170 ng·h/mL | Vd [20]: 1 L/kg | clearance [21]: 10.5 mL/min/kg | MRT inf [22]: 1.36 h | MRT inf [23]: 2.24 h | bioavailability [24]: 120%
Compound: Nc1cc(-c2cccc(-n3ccc4cc(C5CC5)cc(F)c4c3=O)c2CO)nc(Nc2cnn(C3CC3)c2)n1
inhibition in vivo at 30 mg/kg (Mus musculus): 46% | inhibition (INH) [27]: Active

IC50 [1]: 3.4 nM | Papp [9]: 6.1 ×10⁻⁶ cm/s | solubility kinetic at 1 h [10]: 6.3 µM (≈ 3.39 µg/mL)
Compound: Nc1cc(-c2cccc(-n3ccc4cc(C5CC5)cc(F)c4c3=O)c2CO)nc(Nc2cnn(CC3CC3)c2)n1

IC50 [1]: 5.3 nM
Compound: CN1CCN(c2ccc(Nc3nc(N)cc(-c4cccc(-n5ccc6cc(C7CC7)cc(F)c6c5=O)c4CO)n3)cc2)CC1

IC50 [1]: 20.2 nM
Compound: Cn1cc(Nc2nc(N)cc(-c3cccc(-n4ccc5cc(C6CC6)cc(F)c5c4=O)c3CO)n2)cc1C#N

IC50 [1]: 5.9 nM
Compound: CC(=O)c1cc(Nc2nc(N)cc(-c3cccc(-n4ccc5cc(C6CC6)cc(F)c5c4=O)c3CO)n2)cn1C
